The target of the assay is T1, human Glucose-dependent Insulinotropic Polypeptide Receptor (hGIPR) (Homo sapiens, UniProt P48546).
T1 sequence (P48546 22-466): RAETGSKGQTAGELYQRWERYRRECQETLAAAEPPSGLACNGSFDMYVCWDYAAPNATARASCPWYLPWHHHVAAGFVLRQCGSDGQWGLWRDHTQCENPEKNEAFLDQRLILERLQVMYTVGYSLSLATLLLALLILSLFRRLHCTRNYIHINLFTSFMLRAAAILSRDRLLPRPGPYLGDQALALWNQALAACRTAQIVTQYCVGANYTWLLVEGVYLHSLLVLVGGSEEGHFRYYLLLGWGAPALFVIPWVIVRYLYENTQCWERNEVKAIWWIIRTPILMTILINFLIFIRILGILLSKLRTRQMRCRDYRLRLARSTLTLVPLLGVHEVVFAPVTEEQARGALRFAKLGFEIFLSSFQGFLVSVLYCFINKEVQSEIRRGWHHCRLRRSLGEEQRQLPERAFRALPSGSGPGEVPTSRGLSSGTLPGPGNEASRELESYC
In words: Functional in vitro GIPR antagonist potency assay (intracellular cAMP, HTRF, hGIP stimulation at EC80). It is filed as cell-based. As to the method: Example AA. Functional In Vitro GIPR Antagonist Potency Assay
The functional in vitro antagonist potency for test compounds was determined by monitoring intracellular cyclic adenosine monophosphate (cAMP) levels in Chinese hamster ovary (CHO)—K1 cells stably expressing the human Glucose-dependent Insulinotropic Polypeptide Receptor (hGIPR). Following agonist activation, hGIPR associates with the G-protein complex causing the Gas subunit to exchange bound guanosine diphosphate (GDP) for guanosine triphosphate (GTP), followed by dissociation of the Gas-GTP complex. The activated Gas subunit can couple to downstream effectors to regulate the levels of second messengers or cAMP within the cell. Thereby, determination of intracellular cAMP levels allows for pharmacological characterization. Intracellular cAMP levels are quantitated using a homogenous assay utilizing the Homogeneous Time Resolved Fluorescence (HTRF) technology from Perkin Elmer. The method is a competitive immunoassay between native cAMP produced by the cells and cAMP labelled with the acceptor dye, d2. The two entities compete for binding to a monoclonal anti-cAMP antibody labeled with cryptate. The specific signal is inversely proportional to the concentration of cAMP in the cells.
Test compounds were solubilized to a concentration of 30 mM in 100% dimethyl sulfoxide (DMSO). An 11-point dilution series using 1 in 3.162-fold serial dilutions was created in 100% DMSO with a top concentration of 8 mM. The serially diluted compound was spotted with an Echo Acoustic liquid handler (Beckman Coulter) into a 384-well assay plate (Corning, Cat No. 3824) at 50 nL/well with duplicate points at each concentration, at a 200× final assay concentration (FAC). The final compound concentration range in the assay was 40 μM to […], with a final DMSO concentration of 0.5%.
Frozen assay-ready vials (at 1×10^7 cells/vial) of CHO-K1 cells stably expressing the Gs-coupled human GIPR receptor (Eurofins, DiscoverX, Cat No. 95-0146C2) were thawed, counted, and resuspended in assay buffer consisting of Hank's Balanced Salt Solution (HBSS, Lonza Cat No. 10-527) containing 20 mM (4-(2-hydroxyethyl)-1-piperazineethanesulfonic acid (HEPES, Lonza, Cat No. 17-737E), 0.1% bovine serum albumin (BSA, Sigma, Cat No. A7979), and 200 μM 3-isobutyl-1-methylxanthine (IBMX, Sigma, Cat No. 15879) at a density of 4×10^5 cells/mL. Cells were added to assay plate (5 μL/well of 4×10^5 cells/mL stock for 2,000 cells/well final) containing 50 nL of 200×FAC test compound, and incubated at 37° C. (95% O2: 5% CO2) for 2 hours, with micro-clime lids (Labcyte, Cat No. LLS-0310). Following the 2-hour cell and compound incubation, a stimulation mix comprised of hGIPR agonist human glucose-dependent insulinotropic polypeptide (hGIP, full length, Sigma Cat No. G2269) in assay buffer/0.1% DMSO was added to the assay plate (5 μL/well) at an estimated EC80 FAC (based on previous hGIP agonist curves) and incubated for another 30 minutes with micro-clime lids at 37° C. (95% O2: 5% CO2), after which intracellular cAMP levels were quantified as per Perkin Elmer's protocol (5 μL of d2 and then 5 μL cryptate, incubated for 1 hour at room temperature). Emission spectra of samples were measured on a Pherastar plate reader (BMG Labtech Inc) using a HTRF protocol (excitation, 320 nm; emission, 665 nm/620 nm).
(95% O2: 5% CO2), with a micro-clime lid. Following the 2-hour cell and DMSO incubation, a hGIP concentration response curve at 2×FAC (12-point curve using 1 in 3 serial dilutions, with triplicate points at each concentration, 100 nM final top concentration) in assay buffer/1% DMSO was added (5 μL/well) and incubated for a further 30 minutes with a micro-clime lid at 37° C. (95% O2: 5% CO2), after which intracellular cAMP levels were quantified and samples measured as described previously. Experiments passed quality control if the agonist concentration used for stimulation fell between the on-the-day EC50-EC90. […]
In general terms: In TR-FRET formats the signal depends on donor and acceptor labels being close together.

Setting [1] is: geometric mean, CHO-K1 cells stably expressing human GIPR, cAMP after hGIP stimulation at EC80.

Here are results for 22 molecules from patent US20250326741A1, “GLUCOSE-DEPENDENT INSULINOTROPIC POLYPEPTIDE RECEPTOR ANTAGONISTS AND USES THEREOF” (Pfizer Inc., priority 2024, published 2025).

Like-named read-outs stand apart in the source and are kept apart here.

Molecule `CC(C)c1ccc(NC(=O)N2CCC[C@@H]2C(=O)Nc2ccn(-c3ccc(C(=O)O)cn3)n2)cc1` [Example 21, 6-{3-[(1-{[4-(propan-2-yl)phenyl]carbamoyl}-D-prolyl)amino]-1H-pyrazol-1-yl}pyridine-3-carboxylic acid] yielded an IC50 under setting [1] of 50 nM.

`Cc1cc(-n2ccc(NC(=O)[C@H]3CCCN3C(=O)Nc3ccc(Cl)c(Cl)c3)n2)ccc1C(=O)O` [Example 37, 4-[3-({1-[(3,4-dichlorophenyl)carbamoyl]-D-prolyl}amino)-1H-pyrazol-1-yl]-2-methylbenzoic acid]: under setting [1], the half-inhibitory concentration (IC50) was 94 nM.

Under setting [1], `Cc1cc(-n2ccc(NC(=O)[C@H]3CCCN3C(=O)Nc3ccc(C(F)(F)F)c(C)c3)n2)ccc1C(=O)O` [Example 38, 2-methyl-4-{3-[(1-{[3-methyl-4-(trifluoromethyl)phenyl]carbamoyl}-D-prolyl)amino]-1H-pyrazol-1-yl}benzoic acid] registered an IC50 of 28 nM.

In turn, `Cc1cc(-n2ccc(NC(=O)[C@H]3CCCN3C(=O)COc3ccc(C(F)(F)F)c(F)c3)n2)ccc1C(=O)O` [Example 67, 4-{3-[(1-{[3-fluoro-4-(trifluoromethyl)phenoxy]acetyl}-D-prolyl)amino]-1H-pyrazol-1-yl}-2-methylbenzoic acid] gave an IC50 under setting [1] of 61 nM.

`CC(C)c1ccc(NC(=O)N2CCC[C@@H]2C(=O)Nc2ccn(-c3ccc(CC(=O)O)cc3)n2)cc1` [Example 2, (4-{3-[(1-{[4-(Propan-2-yl)phenyl]carbamoyl}-D-prolyl)amino]-1H-pyrazol-1-yl}phenyl)acetic Acid] yielded an IC50 under setting [1] of 25 nM.

For the molecule `Cc1cc(NC(=O)N2CCC[C@@H]2C(=O)Nc2ccn(-c3cc(F)c(O)c(F)c3)n2)ccc1C(C)C` [Example 55], half-maximal inhibition under setting [1] (IC50) required 3.8 nM.

`CC(C)c1ccc(NC(=O)N2CCC[C@@H]2C(=O)Nc2ccn(-c3ccc(C(=O)O)cn3)n2)cc1F` [Example 3, 6-{3-[(1-{[3-Fluoro-4-(propan-2-yl)phenyl]carbamoyl}-D-prolyl)amino]-1H-pyrazol-1-yl}pyridine-3-carboxylic Acid] showed a half-maximal inhibitory concentration (IC50) of 20 nM.

Turning to `Cc1cc(-n2ccc(NC(=O)[C@H]3CCCN3C(=O)Nc3ccc(C(C)C)cc3)n2)ccc1C(=O)O` [Example 29, 2-methyl-4-{3-[(1-{[4-(propan-2-yl)phenyl]carbamoyl}-D-prolyl)amino]-1H-pyrazol-1-yl}benzoic acid], 13 nM corresponded to half-maximal inhibition under setting [1] (IC50).

For `Cc1cc(NC(=O)N2CCC[C@@H]2C(=O)Nc2ccn(-c3ccc(C(=O)O)cn3)n2)ccc1C(C)C` [Example 28, 6-{3-[(1-{[3-methyl-4-(propan-2-yl)phenyl]carbamoyl}-D-prolyl)amino]-1H-pyrazol-1-yl}pyridine-3-carboxylic acid], half-maximal inhibition under setting [1] (IC50) was put at 29 nM.

With `Cc1cc(NC(=O)N2CCC[C@@H]2C(=O)Nc2ccn(-c3ccc(C(=O)O)cc3)n2)ccc1C(C)C` [Example 26, 4-{3-[(1-{[3-methyl-4-(propan-2-yl)phenyl]carbamoyl}-D-prolyl)amino]-1H-pyrazol-1-yl}benzoic acid], the IC50 under setting [1] is 64 nM.

In the case of `O=C(O)c1ccc(-n2ccc(NC(=O)[C@H]3CCCN3C(=O)NCc3ccc(OC(F)(F)F)cc3)n2)cc1` [Example 33, 4-(3-{[1-{{[4-(trifluoromethoxy)phenyl]methyl}carbamoyl)-D-prolyl]amino}-1H-pyrazol-1-yl)benzoic acid], half-maximal inhibition under setting [1] (IC50) was put at 90 nM.

Under setting [1], `CC(C)c1ccc(NC(=O)N2CCC[C@@H]2C(=O)Nc2ccn(-c3cc(F)c(O)c(F)c3)n2)cc1` [Example 43] came in with an IC50 of 5.3 nM.

In turn, `Cc1cc(-n2ccc(NC(=O)[C@H]3CCCN3C(=O)Nc3ccc(OC(F)(F)F)cc3)n2)ccc1C(=O)O` [Example 11, 2-Methyl-4-{3-[(1-{[4-(trifluoromethoxy)phenyl]carbamoyl}-D-prolyl)amino]-1H-pyrazol-1-yl}benzoic Acid] gave an IC50 of 11 nM.

For `Cc1cc(-n2ccc(NC(=O)[C@H]3CCCN3C(=O)COc3ccc(OC(F)(F)F)cc3)n2)ccc1C(=O)O` [Example 63, 2-methyl-4-{3-[(1-{[4-(trifluoromethoxy)phenoxy]acetyl}-D-prolyl)amino]-1H-pyrazol-1-yl}benzoic acid], under setting [1], the IC50 came out at 46 nM.

`Cc1cc(NC(=O)N2CCC[C@@H]2C(=O)Nc2ccn(-c3ccc(C(=O)O)cc3)n2)ncc1C(C)C` [Example 30, 4-{3-[(1-{[4-methyl-5-(propan-2-yl)pyridin-2-yl]carbamoyl}-D-prolyl)amino]-1H-pyrazol-1-yl}benzoic acid]: 250 nM corresponded to half-maximal inhibition under setting [1] (IC50).

Molecule `Cc1cc(-n2ccc(NC(=O)[C@H]3CCCN3C(=O)Nc3ccc(C4CC4)c(C(F)(F)F)c3)n2)ccc1C(=O)O` [Example 53, 4-{3-[(1-{[4-cyclopropyl-3-(trifluoromethyl)phenyl]carbamoyl}-D-prolyl)amino]-1H-pyrazol-1-yl}-2-methylbenzoic acid] showed an IC50 under setting [1] of 13 nM.

Regarding `Cc1cc(-n2ccc(NC(=O)[C@H]3CCCN3C(=O)COc3ccc(C(F)(F)F)cc3)n2)ccc1C(=O)O` [Example 17, 2-Methyl-4-{3-[(1-{[4-(trifluoromethyl)phenoxy]acetyl}-D-prolyl)amino]-1H-pyrazol-1-yl}benzoic Acid], the IC50 under setting [1] is 36 nM.

For the molecule `Cc1c(C(=O)O)ccc(-n2ccc(NC(=O)[C@H]3CCCN3C(=O)Nc3ccc(C(F)(F)F)cc3)n2)c1F` [Example 66, 3-fluoro-2-methyl-4-{3-[(1-{[4-(trifluoromethyl)phenyl]carbamoyl}-D-prolyl)amino]-1H-pyrazol-1-yl}benzoic acid], the midpoint of inhibition under setting [1], the IC50, lay at 54 nM.

`Cc1cc(-n2ccc(NC(=O)[C@H]3CCCN3C(=O)NCc3ccc(C(F)(F)F)cc3)n2)ccc1C(=O)O` [Example 40, 2-methyl-4-(3-{[1-{{[4-(trifluoromethyl)phenyl]methyl}carbamoyl)-D-prolyl]amino}-1H-pyrazol-1-yl)benzoic acid] yielded an IC50 under setting [1] of 150 nM.

As to `Cc1cc(-n2ccc(NC(=O)[C@H]3CCCN3C(=O)Nc3ccc(C(F)(F)F)c(Cl)c3)n2)ccc1C(=O)O` [Example 52, 4-{3-[(1-{[3-chloro-4-(trifluoromethyl)phenyl]carbamoyl}-D-prolyl)amino]-1H-pyrazol-1-yl}-2-methylbenzoic acid], the concentration for half-maximal inhibition (IC50) under setting [1] was 13 nM.

With `Cc1cc(-n2ccc(NC(=O)[C@H]3CCCN3C(=O)COc3ccc(C(F)(F)F)cc3)n2)ccc1C(N)=O` [Example 60, N-[1-(4-carbamoyl-3-methylphenyl)-1H-pyrazol-3-yl]-1-{[4-(trifluoromethyl)phenoxy]acetyl}-D-prolinamide], the IC50 under setting [1] was determined as 210 nM.

`CC(C)c1ccc(NC(=O)N2CCC[C@@H]2C(=O)Nc2ccn(-c3cccc(C(=O)O)c3)n2)cc1` [Example 20, 3-{3-[(1-{[4-(propan-2-yl)phenyl]carbamoyl}-D-prolyl)amino]-1H-pyrazol-1-yl}benzoic acid] gave an IC50 under setting [1] of 240 nM.

A word on the IC50: it is the concentration needed to halve the response being measured.
